Assay results taken from article PMC10033419, “Blocking NS3–NS4B interaction inhibits dengue virus in non-human primates” (Nature, 2023).

Tested on: DENV-2 RL strain
Test: Survival study, lethal DENV challenge with 4G2 antibody
Format: in vivo, AG129 mice
Settings: 2'CMC

Measured: % Survival

C[C@@]1(O)[C@H](O)[C@@H](CO)O[C@H]1n1ccc(N)nc1=O [2'CMC]
90%: d p.i. 13
100%: d p.i. 0 | d p.i. 1 | d p.i. 2 | d p.i. 3 | d p.i. 4 | d p.i. 5 | d p.i. 6 | d p.i. 7 | d p.i. 8 | d p.i. 9 | d p.i. 10 | d p.i. 11 | d p.i. 12
80%: d p.i. 14 | d p.i. 15 | d p.i. 16 | d p.i. 17
60%: d p.i. 18 | d p.i. 19 | d p.i. 20 | d p.i. 21 | d p.i. 22 | d p.i. 23
50%: d p.i. 24 | d p.i. 25 = end of study
